Measured values reported in patent US20250064890A1, “PROTEIN COMPOSITIONS FOR THE TREATMENT OF INFLAMMATORY DISEASES” (Unichem Laboratories Limited, priority 2021, published 2025).
Read-outs that look alike come from different tables or passages of the source.

Experiments:
Type in all cases: cell-based, human
[1] = test system: oral (buccal) mucosa cells (TR146)
Procedure: The protective effect of the recombinant lectin on survival of TR146 cells against 5-FU induced damage was determined using following calculations:
The viability of cells was determined as: % Cell viability=(100−% Cytotoxicity); • where, the percentage cytotoxicity corresponding to each treatment was calculated as: % Cytotoxicity=[(R−X)/R]*100, wherein X=Absorbance of cells treated with 5-FU or radiation damage/TI+5-FU, R=Absorbance of Control cells (Untreated) and Percentage protection was calculated as:
{(Absorbance of TI+5-FU or radiation)−(Absorbance of 5-FU or radiation alone)/(Absorbance of Untreated)−(Absorbance of 5-FU alone)}*100

[2] = test system: oral (buccal) mucosa cells (TR146); assay: Sub(G0/G1) cell population (cell cycle) against radiation induced damage; conditions: for % Decrease in Apoptotic cells (with respect to control): Sub G0/G1
Procedure: To determine the effect of test item on cell cycle, oral buccal mucosal cells (TR146) were incubated overnight in 5% CO2 incubator at 37° C. for 24 h. […] After 24 h of treatment, cells were exposed to chemotherapy (5-FU 10 mM) for 24 h or radiotherapy (Gamma radiation (3.5 kGy) using Cobalt 60) for 2 h.
After incubation, cells were harvested by trypsinization and processed for Cell cycle assay. Accordingly, cells were harvested into prelabeled centrifuge tubes and centrifuged at 450 g for 5 min at room temperature (RT, low brake). The supernatants were removed carefully and discarded. 1 ml of 1× phosphate buffer saline (PBS) was added to the pellet and resuspended gently to make homogenous suspension. Cells were centrifuged at 450 g for 5 min, RT (low brake). The supernatant was carefully removed leaving behind approx. 100 μl of PBS. Cells were resuspended gently yet thoroughly in residual PBS. Ice-cold 70% ethanol (100 μl) was added drop-wise into cells in each tube while vortexing at low speed (fixation step). Cells stored at 4° C. for 24 h were centrifuged at 450 g for 5 min, RT (low brake). The supernatant was carefully removed without touching the pellet and discarded. 1 ml of 1×PBS was added into pellet and resuspended gently. Cells were incubated for 1 minute at RT. Cells were centrifuged at 450 g for 5 min, RT (low brake). The supernatant was removed carefully without touching the pellet, leaving behind approx. 20-50 μl of PBS. 200 μl of cell cycle reagent was added into each tube. Cells were resuspended gently and mixed. Cells were incubated for 30 min at RT in the dark. The stained samples were transferred into 96-well plates and acquired on flow cytometer (Guava technologies). Percentage of cells in Sub (G0/G1) phase were determined based on the concept that cell cycle reagent contains PI stain, which stains DNA of cells in different phases of cell cycle; Sub (G0/G1), G1, S, G2 and M. Cells in Sub (G0/G1) phase correspond to apoptotic cells. Percent inhibition in apoptotic cells is determined by the formula:
=[(% Sub(G0/G1) cells in 5-FU/radiation alone)−(% Sub(G0/G1) cells in TI+5-FU/radiation)/% Sub(G0/G1) cells in 5-FU/radiation alone]*100

IL-12/IL-23p40 = assay: Multiplex analysis, chemotherapy (5-FU), TR146
Procedure: (§1) Oral buccal mucosal cells (TR146) cells were incubated overnight at 37° C. in 5% CO2 incubator. […] The cells were then stimulated with 5-FU (10 mM) for another 24h for chemotherapy and with gamma radiation (3.5 kGy) using Cobalt 60 for radiotherapy. After 24 h, cell culture supernatants were collected from each well and stored at −20° C. till multiplex analysis. For NF-kB estimations, cell lysates were prepared. Levels of biomarkers were estimated using Magpix® multiplex machine. The cells treated with Amifostine (along with 5-FU or radiation) were considered as positive control (PC). Untreated cells (5-FU or radiation alone treated) were used as negative control (NC).
(§2) The percent modulation in each sample was determined as follows:
(§3) [{Concentration of biomarkers (pg/ml) in Control cells (5-FU or radiation alone treated)−Concentration of biomarkers (pg/ml) in SEQ ID NO: 2+5-FU or radiation treated cells)}/Concentration of biomarkers (pg/ml) in Control cells (5-FU or radiation alone treated)]*100

IL-1β [3] = assay: Multiplex analysis, chemotherapy (5-FU), TR146
Procedure: as §1, §2, §3

IL-6 [4] = assay: Multiplex analysis, chemotherapy (5-FU), TR146
Procedure: as §1, §2, §3

MMP-3 [5] = assay: Multiplex analysis, chemotherapy (5-FU), TR146
Procedure: as §1, §2, §3

TNF-α [6] = assay: Multiplex analysis, chemotherapy (5-FU), TR146
Procedure: as §1, §2, §3

VEGF [7] = assay: Multiplex analysis, chemotherapy (5-FU), TR146
Procedure: as §1, §2, §3

CCL-2 = assay: Multiplex analysis, radiotherapy, TR146
Procedure: as §1, §2, §3

IL-1β [8] = assay: Multiplex analysis, radiotherapy, TR146
Procedure: as §1, §2, §3

IL-6 [9] = assay: Multiplex analysis, radiotherapy, TR146
Procedure: as §1, §2, §3

MMP-3 [10] = assay: Multiplex analysis, radiotherapy, TR146
Procedure: as §1, §2, §3

MMP-8 = assay: Multiplex analysis, radiotherapy, TR146
Procedure: as §1, §2, §3

RAGE = assay: Multiplex analysis, radiotherapy, TR146
Procedure: as §1, §2, §3

TNF-α [11] = assay: Multiplex analysis, radiotherapy, TR146
Procedure: as §1, §2, §3

VEGF [12] = assay: Multiplex analysis, radiotherapy, TR146
Procedure: as §1, §2, §3

[13] = 0.1 μg/ml + Radiation (3.5 kGy)

Which “% Protection” value ([1]; 1 μg/ml + Radiation (3.5 kGy)) does the source give for NCCCNCCSP(=O)(O)O [Amifostine, reference compound] here?
Its value is 7.7%.

What about the “% Protection” value ([1]; 5 μg/ml + Radiation (3.5 kGy)) of the same compound?
Its value is 22.2%.

And the “% Protection” value ([1]; 10 μg/ml + Radiation (3.5 kGy))?
Its value is 43.1%.

And the “% Protection” value ([1]; 25 μg/ml + Radiation (3.5 kGy))?
Its value is 12%.

What about the “% Apoptotic cells (Sub G0/G1)” value [2, 13] of the same compound?
The value was 19.4%.

And the “% Decrease in Apoptotic cells (with respect to control)” value (from here on “% Decrease in Apoptotic cells”) [2, 13]?
The value was 45.1%.

What about the “% Apoptotic cells (Sub G0/G1)” value ([2]; 1 μg/ml + Radiation (3.5 kGy)) of the same compound?
Its value is 21.8%.

And the “% Decrease in Apoptotic cells” value ([2]; 1 μg/ml + Radiation (3.5 kGy))?
Its value is 38.2%.

And the “% Apoptotic cells (Sub G0/G1)” value ([2]; 10 μg/ml + Radiation (3.5 kGy))?
The value was 12.9%.

And the “% Decrease in Apoptotic cells” value ([2]; 10 μg/ml + Radiation (3.5 kGy))?
Its value is 63.5%.

What about the “Percentage Inhibition IL-12/IL-23p40” value (IL-12/IL-23p40; 1 μg/ml + 5-FU (10 mM)) of the same compound?
Its value is 0%.

What about the “Percentage Inhibition IL-12/IL-23p40” value (IL-12/IL-23p40; 10 μg/ml + 5-FU (10 mM)) of the same compound?
Its value is −2.1%.

And the “Percentage Inhibition IL-12/IL-23p40” value (IL-12/IL-23p40; 50 μg/ml + 5-FU (10 mM))?
Its value is 13.4%.

What about the “Percentage Inhibition IL-1β” value (IL-1β [3]; 1 μg/ml + 5-FU (10 mM)) of the same compound?
Its value is 14.2%.

And the “Percentage Inhibition IL-1β” value (IL-1β [3]; 10 μg/ml + 5-FU (10 mM))?
Its value is 19.5%.

And the “Percentage Inhibition IL-1β” value (IL-1β [3]; 50 μg/ml + 5-FU (10 mM))?
Its value is 46.6%.

And the “Percentage Inhibition IL-6” value (IL-6 [4]; 1 μg/ml + 5-FU (10 mM))?
The value was 7.2%.

What about the “Percentage Inhibition IL-6” value (IL-6 [4]; 10 μg/ml + 5-FU (10 mM)) of the same compound?
The value was 8.9%.

What about the “Percentage Inhibition IL-6” value (IL-6 [4]; 50 μg/ml + 5-FU (10 mM)) of the same compound?
The value was 35.2%.

What about the “Percentage Inhibition MMP-3” value (MMP-3 [5]; 1 μg/ml + 5-FU (10 mM)) of the same compound?
The value was 22.6%.

And the “Percentage Inhibition MMP-3” value (MMP-3 [5]; 10 μg/ml + 5-FU (10 mM))?
The value was 23.4%.

What about the “Percentage Inhibition MMP-3” value (MMP-3 [5]; 50 μg/ml + 5-FU (10 mM)) of the same compound?
The value was 26.8%.

What about the “Percentage Inhibition TNF-α” value (TNF-α [6]; 1 μg/ml + 5-FU (10 mM)) of the same compound?
Its value is 10%.

And the “Percentage Inhibition TNF-α” value (TNF-α [6]; 10 μg/ml + 5-FU (10 mM))?
The value was 13.3%.

And the “Percentage Inhibition TNF-α” value (TNF-α [6]; 50 μg/ml + 5-FU (10 mM))?
Its value is 10%.

What about the “Percentage Inhibition VGEF” value (VEGF [7]; 1 μg/ml + 5-FU (10 mM)) of the same compound?
The value was 27.9%.

And the “Percentage Inhibition VGEF” value (VEGF [7]; 10 μg/ml + 5-FU (10 mM))?
The value was 35.4%.

What about the “Percentage Inhibition VGEF” value (VEGF [7]; 50 μg/ml + 5-FU (10 mM)) of the same compound?
Its value is 39.6%.

What about the “Percentage Inhibition CCL-2” value (CCL-2; [13]) of the same compound?
The value was 23.1%.

And the “Percentage Inhibition CCL-2” value (CCL-2; 10 μg/ml + Radiation (3.5 kGy))?
The value was 0.1%.

What about the “Percentage Inhibition IL-1β” value (IL-1β [8]; [13]) of the same compound?
Its value is 10.7%.

What about the “Percentage Inhibition IL-1β” value (IL-1β [8]; 10 μg/ml + Radiation (3.5 kGy)) of the same compound?
The value was 12.1%.

And the “Percentage Inhibition IL-6” value (IL-6 [9]; [13])?
Its value is 14.2%.

And the “Percentage Inhibition IL-6” value (IL-6 [9]; 10 μg/ml + Radiation (3.5 kGy))?
Its value is 1.3%.

What about the “Percentage Inhibition MMP-3” value (MMP-3 [10]; [13]) of the same compound?
Its value is 51.9%.

What about the “Percentage Inhibition MMP-3” value (MMP-3 [10]; 10 μg/ml + Radiation (3.5 kGy)) of the same compound?
The value was 47.4%.

And the “Percentage Inhibition MMP-8” value (MMP-8; [13])?
The value was 3.6%.

What about the “Percentage Inhibition MMP-8” value (MMP-8; 10 μg/ml + Radiation (3.5 kGy)) of the same compound?
The value was 13%.

What about the “Percentage Inhibition RAGE” value (RAGE; [13]) of the same compound?
Its value is 45.1%.

What about the “Percentage Inhibition RAGE” value (RAGE; 10 μg/ml + Radiation (3.5 kGy)) of the same compound?
Its value is 40.3%.

And the “Percentage Inhibition TNF-α” value (TNF-α [11]; [13])?
Its value is 49.3%.

And the “Percentage Inhibition TNF-α” value (TNF-α [11]; 10 μg/ml + Radiation (3.5 kGy))?
The value was 44.3%.

What about the “Percentage Inhibition VGEF” value (VEGF [12]; [13]) of the same compound?
The value was 10.3%.

And the “Percentage Inhibition VGEF” value (VEGF [12]; 10 μg/ml + Radiation (3.5 kGy))?
Its value is 7.2%.
